{"source": "ChEMBL document CHEMBL5209588", "about": "“Membrane potential based assay for SLC6A9 using HEK-293 SLC6A9 OE cells” (2022)", "biological_target": "T1, Sodium- and chloride-dependent glycine transporter 1 (Homo sapiens, UniProt P48067)", "T1 sequence (P48067 whole entry)": "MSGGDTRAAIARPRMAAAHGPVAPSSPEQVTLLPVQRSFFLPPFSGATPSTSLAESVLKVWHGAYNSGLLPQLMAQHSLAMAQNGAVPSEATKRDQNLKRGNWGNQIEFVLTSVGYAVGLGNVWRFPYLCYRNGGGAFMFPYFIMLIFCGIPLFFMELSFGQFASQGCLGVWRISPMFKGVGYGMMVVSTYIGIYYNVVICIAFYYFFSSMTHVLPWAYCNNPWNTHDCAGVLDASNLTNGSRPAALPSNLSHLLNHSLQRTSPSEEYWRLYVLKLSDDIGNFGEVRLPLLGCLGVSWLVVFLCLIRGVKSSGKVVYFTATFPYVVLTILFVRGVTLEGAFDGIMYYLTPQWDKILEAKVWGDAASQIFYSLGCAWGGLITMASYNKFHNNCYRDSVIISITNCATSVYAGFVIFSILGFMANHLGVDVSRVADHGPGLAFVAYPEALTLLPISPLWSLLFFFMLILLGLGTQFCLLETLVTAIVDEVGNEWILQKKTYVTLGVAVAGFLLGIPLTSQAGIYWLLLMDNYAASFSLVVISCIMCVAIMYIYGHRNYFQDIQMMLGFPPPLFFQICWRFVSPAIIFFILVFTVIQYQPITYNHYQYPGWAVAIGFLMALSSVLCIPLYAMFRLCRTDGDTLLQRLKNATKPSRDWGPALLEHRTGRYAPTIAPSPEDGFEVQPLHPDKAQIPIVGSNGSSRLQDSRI", "description": "Substrate uptake and inhibition of the Glycine Transporter-1 (GlyT1, SLC6A9) as assessed by the fluorescent FLIPR membrane potential dye in HEK-293 JumpIN-SLC6A9 cells (PubChem AID: 1794809)"}
{"smiles": "NCC(=O)O", "note": "[GLYCINE]", "values": [{"measurement": "EC50", "value": 106, "unit": "µM"}]}
